The text below walks through data of US11198692B2, “Dihydro-pyrrolo-pyridine derivatives” (Pfizer Inc., priority 2017, dated 2021).

Where only a bound is given, the exact number is not on record here.

The assay concerns the target T1, Human M4 receptors (Homo sapiens, UniProt P08173).
T1 construct: expressed in transfected cells
T1 sequence (P08173 1-479): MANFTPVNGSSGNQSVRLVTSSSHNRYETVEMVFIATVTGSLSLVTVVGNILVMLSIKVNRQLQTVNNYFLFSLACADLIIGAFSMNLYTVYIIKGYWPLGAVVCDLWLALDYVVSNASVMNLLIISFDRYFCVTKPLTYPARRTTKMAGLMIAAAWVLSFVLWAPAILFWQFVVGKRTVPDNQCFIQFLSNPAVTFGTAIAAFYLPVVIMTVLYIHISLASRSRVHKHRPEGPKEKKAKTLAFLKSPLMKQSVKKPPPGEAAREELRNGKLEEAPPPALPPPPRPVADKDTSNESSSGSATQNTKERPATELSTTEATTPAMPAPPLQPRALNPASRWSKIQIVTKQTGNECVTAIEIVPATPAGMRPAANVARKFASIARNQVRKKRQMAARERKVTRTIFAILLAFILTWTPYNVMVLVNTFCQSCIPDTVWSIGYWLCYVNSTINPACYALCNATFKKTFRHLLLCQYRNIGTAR
Nature of the assay: M4 PAM cAMP assay (GloSensor). Format: cell-based. Particulars: HEK293 GloSensor cells expressing hM4, with EC20 acetylcholine and isoproterenol, geometric mean of 2-4 determinations unless footnoted (b: >=5, c: single); for Emax / EC50 Mean Asymptote Maximum (%): Emax = maximum asymptote of fitted dose response curve; for Emax: read-out: EC50 Mean Asymptote Maximum (%). The method, then: The M4 cAMP assay was designed to determine the potency and efficacy of muscarinic positive allosteric modulators (PAMs). Human M4 receptors were stably expressed in Human embryonic kidney (HEK293) cells expressed with the Promega GloSensor™ cAMP technology.
HEK293 GloSensor cells expressing hM4 cells were cultured in growth media containing DMEM with 10% FBS, 1% Penicillin/Streptomycin, 500 μg/mL G418, 200 μg/mL Hygomycin B, and 1% Glutamax. When cells had grown to 80%-90% confluency, cells were harvested and seeded at a density of 25,000 cells/40 μL well, in a 384 white walled plates (Becton Dickinson 356661). Plates were incubated at 37 degrees C. and 5% CO2 for use after 24 hours.
Compound Preparation for Activator Screen:
Test compounds were initially prepared as 100% DMSO stock solutions, then transferred and serially diluted in 384-well compound plates (Matrix #4325). Each compound was tested at 10 concentrations in duplicate per experiment. Compound plates are spotted with 0.2 μL/well activator at 400 times the final assay concentration. Positive and negative controls for the compound alone activator response was 10 μM acetylcholine (Sigma # A2661) and DMSO, respectively. EC20 of acetylcholine was also used to define PAM activities.
Promega GloSensor™reagent (Promega # E1291) had previously been aliquotted. For each experiment, a stock solution of GloSensor™ was thawed out and equilibration medium was prepared with 88% CO2-independent media (Invitrogen #18045088), 10% fetal bovine serum and 2% GloSensor™ cAMP Reagent stock solution. Stock solution was mixed. Culture media in cell plates was discarded, then replaced with 40 μL/well pre-warmed equilibration media, then incubated in the dark at room temperature for 2 hours. During the incubation, stimulation media containing agonist and EC20 acetylcholine was prepared. CO2-independent media containing 50 […] Isoproterenol representing an EC80 of b-adrenergic receptor activity (Sigma #16504, 400 times final concentration) and EC20 acetylcholine in 1.25% DMSO was added to all columns of the compound plate, with the exception of column 12 to allow for EC0 control. […] Compounds are now 5 times the final assay concentration. The plate was mixed using a plate agitator. At the end of the 2 hour GloSensor™ incubation, add 10 μL of the CO2-independent media containing agonist, EC20 acetylcholine and isoproterenol to the cell plate. Cell plate was then incubated for 10 minutes at room temperature, and then read using an EnVision plate reader (Perkin Elmer).
Data was exported from the EnVision plate reader. The percent effect for each well was determined using the mean values for the positive and negative controls on each plate for each read, specifically 100*(compound−negative control)/(positive control−negative control). Dose response curves were fitted to the compound percent effect data using a 4-parameter logistic fit model. Data was reported as EC50 and Emax, with the Emax as the maximum asymptote of the fitted dose response curve.
(In general: cAMP levels reflect the balance of adenylyl cyclase and phosphodiesterase activity.)

`CNc1nc(C)c(C)c2c1CN(C(=O)C[C@H]1C[C@@H]1c1cncnc1)C2` (racemic) [Example 28, 1-[6,7-dimethyl-4-(methylamino)-1,3-dihydro-2H-pyrrolo[3,4-c]pyridin-2-yl]-2-[trans-2-(pyrimidin-5-yl)cyclopropyl]ethanone]: the Emax was 94.8% and the EC50 was below 1.7 nM.
In the case of `CNc1nc(C)c(C)c2c1CN(C(=O)C[C@@H]1C[C@H]1c1ccc(Cl)nc1)C2` (racemic) [Example 33, 2-[trans-2-(6-chloropyridin-3-yl)cyclopropyl]-1-[6,7-dimethyl-4-(methylamino)-1,3-dihydro-2H-pyrrolo[3,4-c]pyridin-2-yl]ethanone], the Emax was determined as 128% and the EC50 was determined as 5.32 nM.
For `CNc1nc(C)c(C)c2c1CN(C(=O)CC1CN(c3ccnc(C(F)(F)F)c3)C1)C2C` (racemic) [Example 42, 2-{1-[2-(trifluoromethyl)pyridin-4-yl]azetidin-3-yl}-1-[1,6,7-trimethyl-4-(methylamino)-1,3-dihydro-2H-pyrrolo[3,4-c]pyridin-2-yl]ethanone], in that order: 116% and 6.96 nM.
For `CNc1nc(C)c(C)c2c1CN(C(=O)C[C@@H]1C[C@H]1c1ccc(C)nc1)C2` (racemic) [Example 45, 1-[6,7-dimethyl-4-(methylamino)-1,3-dihydro-2H-pyrrolo[3,4-c]pyridin-2-yl]-2-[trans-2-(6-methylpyridin-3-yl)cyclopropyl]ethanone], in that order: 105% and 3.56 nM.
For `Cc1nc(N)c2c(c1C)CN(C(=O)C[C@@H]1C[C@H]1c1ccc(F)nc1)C2` (relative stereo) [Example 7, 1-(4-Amino-6,7-dimethyl-1,3-dihydro-2H-pyrrolo[3,4-c]pyridin-2-yl)-2-[trans-2-(6-fluoropyridin-3-yl)cyclopropyl]ethanone], in that order: 109% and 6.45 nM.
Consider `Cc1nc(N)c2c(c1C)CN(C(=O)C[C@@H]1C[C@H]1c1ccc(F)nc1)C2` (single isomer, unassigned) [Example 8, 1-(4-Amino-6,7-dimethyl-1,3-dihydro-2H-pyrrolo[3,4-c]pyridin-2-yl)-2-[trans-2-(6-fluoropyridin-3-yl)cyclopropyl]ethanone], for which the Emax was found to be 99% and the concentration giving a half-maximal response (EC50) came to 1.24 nM.
In the case of `Cc1nc(N)c2c(c1C)CN(C(=O)C[C@@H]1C[C@H]1c1ccc(F)nc1)C2` (single isomer, unassigned) [Example 9, 1-(4-Amino-6,7-dimethyl-1,3-dihydro-2H-pyrrolo[3,4-c]pyridin-2-yl)-2-[trans-2-(6-fluoropyridin-3-yl)cyclopropyl]ethanone], the “EC50 Mean Asymptote Maximum (%)” value is reported as 111% and the half-maximal effective concentration (EC50) was found to be 99.4 nM.
Consider `CNc1nc(C)c(C)c2c1CN(C(=O)C[C@@H]1C[C@H]1c1cccnc1)C2` (single isomer, unassigned) [Example 10, 1-[6,7-Dimethyl-4-(methylamino)-1,3-dihydro-2H-pyrrolo[3,4-c]pyridin-2-yl]-2-[trans-2-(pyridin-3-yl)cyclopropyl]ethanone], for which the Emax stood at 114% and the midpoint of the response, the EC50, lay at 197 nM.
On to `CNc1nc(C)c(C)c2c1CN(C(=O)C[C@@H]1C[C@H]1c1cccnc1)C2` (single isomer, unassigned) [Example 11, 1-[6,7-Dimethyl-4-(methylamino)-1,3-dihydro-2H-pyrrolo[3,4-c]pyridin-2-yl]-2-[trans-2-(pyridin-3-yl)cyclopropyl]ethanone], for which the “EC50 Mean Asymptote Maximum (%)” value is listed as 94.8^b % and the EC50 came to 1.6 nM.
For `CNc1nc(C)c(C)c2c1CN(C(=O)C[C@@H]1C[C@H]1c1ccc(F)nc1)C2` (single isomer, unassigned) [Example 15, 1-[6,7-dimethyl-4-(methylamino)-1,3-dihydro-2H-pyrrolo[3,4-c]pyridin-2-yl]-2-[trans-2-(6-fluoropyridin-3-yl)cyclopropyl]ethanone], in that order: 148% and 795 nM.
For `CNc1nc(C)c(C)c2c1CN(C(=O)C[C@@H]1C[C@H]1c1ccc(F)nc1)C2` (single isomer, unassigned) [Example 16, 1-[6,7-dimethyl-4-(methylamino)-1,3-dihydro-2H-pyrrolo[3,4-c]pyridin-2-yl]-2-[trans-2-(6-fluoropyridin-3-yl)cyclopropyl]ethanone], in that order: 102^b % and 0.838 nM.
`Cc1c2c(c(=O)n(C)c1C)CN(C(=O)C[C@@H]1C[C@H]1c1cccnc1)C2` (single isomer, unassigned) [Example 26, 5,6,7-trimethyl-2-{[trans-2-(pyridin-3-yl)cyclopropyl]acetyl}-1,2,3,5-tetrahydro-4H-pyrrolo[3,4-c]pyridin-4-one]: the Emax turned out to be 90.8% and the EC50 was 2140 nM.
Regarding `Cc1c2c(c(=O)n(C)c1C)CN(C(=O)C[C@@H]1C[C@H]1c1cccnc1)C2` (single isomer, unassigned) [Example 27, 5,6,7-trimethyl-2-{[trans-2-(pyridin-3-yl)cyclopropyl]acetyl}-1,2,3,5-tetrahydro-4H-pyrrolo[3,4-c]pyridin-4-one], the “EC50 Mean Asymptote Maximum (%)” value was found to be 95.3% and the EC50 came to 9.99 nM.
Consider `CNc1nc(C)c(C)c2c1CN(C(=O)C[C@@H]1C[C@H]1c1cncnc1)C2` (single isomer, unassigned) [Example 29, 1-[6,7-dimethyl-4-(methylamino)-1,3-dihydro-2H-pyrrolo[3,4-c]pyridin-2-yl]-2-[trans-2-(pyrimidin-5-yl)cyclopropyl]ethanone], for which the Emax is 96.3% and the EC50 was 690 nM.
`CNc1nc(C)c(C)c2c1CN(C(=O)C[C@@H]1C[C@H]1c1cncnc1)C2` (single isomer, unassigned) [Example 30, 1-[6,7-dimethyl-4-(methylamino)-1,3-dihydro-2H-pyrrolo[3,4-c]pyridin-2-yl]-2-[trans-2-(pyrimidin-5-yl)cyclopropyl]ethanone]: the “EC50 Mean Asymptote Maximum (%)” value was 95.1% and the EC50 came out at 1.58 nM.
For `CNc1nc(C)c(C)c2c1CN(C(=O)C[C@@H]1C[C@H]1c1ccc(F)cc1)C2` (single isomer, unassigned) [Example 40, 1-[6,7-dimethyl-4-(methylamino)-1,3-dihydro-2H-pyrrolo[3,4-c]pyridin-2-yl]-2-[trans-2-(4-fluorophenyl)cyclopropyl]ethanone], in that order: 121^c % and 6.77 nM.
For `CNc1nc(C)c(C)c2c1CN(C(=O)C[C@@H]1C[C@H]1c1ccc(F)cc1)C2` (single isomer, unassigned) [Example 41, 1-[6,7-dimethyl-4-(methylamino)-1,3-dihydro-2H-pyrrolo[3,4-c]pyridin-2-yl]-2-[trans-2-(4-fluorophenyl)cyclopropyl]ethanone], in that order: 145^c % and 783 nM.
Take `CNc1nc(C)c(C)c2c1CN(C(=O)CC1CN(c3ccnc(C(F)(F)F)c3)C1)C2C` (single isomer, unassigned) [Example 43, 2-{1-[2-(trifluoromethyl)pyridin-4-yl]azetidin-3-yl}-1-[1,6,7-trimethyl-4-(methylamino)-1,3-dihydro-2H-pyrrolo[3,4-c]pyridin-2-yl]ethanone]: the “EC50 Mean Asymptote Maximum (%)” value is 152^c % and the concentration for a half-maximal effect (EC50) stood at 3670 nM.

What is called EC50 is the midpoint of the concentration-response curve.
